≈ marks a conversion by molar mass, not a printed value.
Tested on: Mycobacterium tuberculosis
Assay: Antimicrobial activity against Mycobacterium bovis BCG by alamar blue assay
Format: functional, variant bovis BCG

Row | SMILES | MIC90 (Mycobacterium tuberculosis, variant bovis BCG, read-out: MIC90) [µg/mL] | MIC90 [µg/mL]
1 | CO[C@H]1/C=C/O[C@@]2(C)Oc3c(C)c(O)c4c(O)c(c(/C=N/N5CCN(C)CC5)c(O)c4c3C2=O)NC(=O)/C(C)=C\C=C\[C@H](C)[C@H](O)[C@@H](C)[C@@H](O)[C@@H](C)[C@H](OC(C)=O)[C@@H]1C [RIFAMPIN] | 0.02 (≈ 0.0243 µM) | 
2 | COc1nc2ccc(Br)cc2cc1[C@H](c1ccccc1)[C@@](O)(CCN(C)C)c1cccc2ccccc12 (racemic; 1d) |  | 1.8 (≈ 3.24 µM)
3 | COc1nc2ccc(Br)cc2cc1[C@H](c1ccccc1)[C@@](O)(CCN(C)C)c1cccc2ccccc12 (racemic; 1c) |  | 7.9 (≈ 14.2 µM)
4 | COc1nc2ccc(Br)cc2cc1[C@@H](c1ccccc1)[C@@](O)(CCN(C)C)c1cccc2ccccc12 (single isomer, unassigned) [BEDAQUILINE] |  | 1.8 (≈ 3.24 µM)
5 | COc1nc2ccc(Br)cc2cc1[C@@H](c1ccccc1)[C@@](O)(CCN(C)C)c1cccc2ccccc12 [BEDAQUILINE] |  | 0.07 (≈ 0.126 µM)

Source: ChEMBL document CHEMBL1221200, “Diarylquinolines target subunit c of mycobacterial ATP synthase” (Nat Chem Biol, 2007)
